From patent US20250270216A1, “ANTI-INFECTIVE AGENTS” (UNIVERSITY OF DUNDEE, priority 2022, published 2025)

Experiments:
PfLysRS = PfLysRS (Plasmodium falciparum, UniProt Q8IDJ8); conditions: Hoepfner et al, Cell Host Microbe, 2012; cited from earlier work
[1] = target: T1, Human lysyl tRNA Synthetase (KRS) (Homo sapiens, UniProt Q15046); assay: In vitro inhibition of human lysyl tRNA synthetase (KRS), Biomol green phosphate detection; type: biochemical; conditions: 3.5 μM ATP, 6 μM L-Lysine, 5 h room temperature; read-out: Hs KRS pIC50 (converted)
T1 construct: His tag with PreScission site (His PP pET15b); made in house; host or cells: E. coli BL21 (DE3)
Method: The gene coding for Human KRS, codon optimized for expression in E. coli, was obtained from Genscript and cloned into a His PP pET15b vector using Nde1 and Xho1 restriction sites. The resulting vector was used to transform BL21 (DE3) competent cells for protein expression. A 120 ml overnight culture was set up and grown at 37° C. 200 rpm for 16 h and used the next day to inoculate 6 litres of Autoinduction+AMP medium. This culture was grown at 37° C. for 4 h then 20° C. for 20 h. The cells were harvested by centrifugation at 3,500 g for 30 min then stored at −20° C. The resulting cell pellet was 50 g. Lysis buffer (150 ml, 25 mM HEPES/500 mM NaCl/20 mM imidazole/2 mM DTT/10% glycerol pH 7.5/protease inhibitor tablets/DNAase) was added and the pellets for defrosted at room temperature for approximately 10 min. The slurry was then passed through a Cell Disrupter (Constant Systems) set at […] to lyse the cells. The sample was then centrifuged at 40,000 g for 20 min. The supernatant was then filtered using syringe filters to 0.45 μm. The supernatant was loaded onto a 5 ml HiTrap Ni HP column that had been equilibrated with BufferA (25 mM HEPES/500 mM NaCl/20 mM Imidazole/2 mM DTT/10% Glycerol pH 7.5) at 5 ml/min using an AKTA Pure system. Once loaded the column was washed with 10 column volumes buffer A. A 5% step of Buffer B (25 mM HEPES/500 mM NaCl/500 mM Imidazole/2 mM DTT/10% Glycerol pH 7.5) was then used to wash off His rich contaminating proteins. A gradient of 5-50% B was used to elute the protein. Approximately 55 mg of protein was present in the fractions containing the HsKRS protein. The sample was then passed through a 0.2 μm filter, before loading onto a XK26/60 Superdex 200 column equilibrated with Buffer C (25 mM HEPES/150 mM NaCl/2 mM DTT/10% glycerol pH 7.0) using an AKTA Pure system at 4° C. at 2 ml/min. The sample was then dialyzed into 25 mM HEPES/500 mM NaCl//2 mM DTT/10% glycerol/0.25% azide pH 7.0. The protein was concentrated to 1 mg/ml and frozen at −80° C. Approximately 23 mg of protein was produced.
Assay Method for Measurement of In Vitro Inhibition of Human lysyl tRNA Synthetase (KRS)
Potency of compounds was determined in 10 points dose-response inhibition curves. Compounds were transferred into 384-well clear bottom plates (Greiner Bio-One, 781101) using an Echo 550 acoustic dispenser (Labcyte). Using an automatic liquid dispenser, 50 μL reaction mixes were prepared by adding 25 μL of substrate mix into all wells followed by the addition of 25 μL enzyme mix into all wells (final reaction: 30 mM Tris-HCl, pH 8.0, 40 mM MgCl2, 140 mM NaCl, 30 mM KCl, 0.01% Brij-35, 1 mM DTT, 3.5 μM ATP, 6 μM L-Lysine, 200 nM […] and 0.5 U/mL Pyrophosphatase). Complete inhibition control reactions were performed in the presence of 100 μM of control compoundand the plates were incubated at room temperature for 5 h. Reactions were stopped by the addition of Biomol green (50 μL: Enzo Life Sciences) with the amount of free phosphate detected by measuring absorbance (650 nm) after 20 min further incubation (BMG Pherastar plate reader). Counter screen assays to eliminate direct inhibition of pyrophsphatase were performed using 0.5 U/mL pyrophosphatase and 3 μM pyrophosphate as substrate in the same assay buffer (30 mM Tris-HCl, pH 8.0, 40 mM MgCl2, 140 mM NaCl, 30 mM KCl, 0.01% Brij-35, 1 mM DTT) for 5 hours at room temperature. Biomol green was added and incubated for 20 min before detection as above. Samples were run in duplicate and data was processed and analysed using ActivityBase (IDBS).

Cryptosporidium parvum = assay: In vitro inhibition of Cryptosporidium (method of Bessoff et al.); type: cell-based; conditions: read-out: C. parvum PEC50 (converted)
From the text: Assay Method for Measurement of In Vitro Inhibition of Cryptosporidium
These experiments were run in accordance with the method of Besssoff et. al. Antimicrob. Agents Chemother. 2013, 57:1804-1814. Results from these experiments are provided in the Experimental Results hereinafter.

[2] = target: Cryptosporidium parvum lysyl t-RNA synthetase (Cp KRS) (Cryptosporidium parvum, UniProt Q5CR27); assay: In vitro inhibition of Cryptosporidium lysyl tRNA synthetase (KRS), Biomol green phosphate detection; type: biochemical; conditions: 300 nM CpKRS, 500 μM ATP, 1.2 mM L-Lysine, 8 h room temperature; read-out: C. parvum KRS pIC50 (converted)
From the text: The protein expression and purification method for recombinant CpKRS was described in Baragana et aL, PNAS, 2019, 116 (4), 7015-7020 and will be summarised below.
The C. parvum KRS had 45 residues removed at the N-terminus. All amplicons were cloned into the pAVA0421 expression vector using the ligation independent cloning (LIC) method. Recombinant plasmids were transformed into Rosetta BL21(DE3) competent cells and plated on LB agar plates with ampicillin, carbenicillin, and chloramphenicol selection. Clones were expressed using previously reported autoinduction methods and scaled to 2-litre cultures in a shake flasks. Cell pellets were harvested and lysed with 100 mM HEPES/150 mM NaCl/5% Glycerol/20 mM imidazole/0.5 mM TCEP pH 7.5/DNase/Complete inhibitor tablets) using a Cell Disrupter (Constant Systems) at 30 KPSI and centrifuged at 40,000 g for 20 min remove cell debris. The supernatant was loaded onto a 5 ml HiTrap Ni HP column that had been equilibrated with Buffer A (100 mM HEPES/150 mM NaCl/5% Glycerol/20 mM imidazole/0.5 mM TCEP pH 7.5) at 5 ml/min using an AKTA Pure system. Once loaded the column was washed with 10 column volumes of buffer A. A 5% step of Buffer B (100 mM HEPES/150 mM NaCl/5% Glycerol/500 mM imidazole/0.5 mM TCEP pH 7.5) was then used to wash off His-rich contaminating proteins. A linear gradient of 5-50% B was used to elute the protein. Approximately 287 mg of protein was present in the fractions containing the CpKRS protein. The sample was then concentrated to approximately 30 ml, passed through a 0.2 μm filter, before loading onto a XK26/60 Superdex 200 column using an AKTA Pure system at 4° C. at 2 ml/min 10 ml at a time. The eluted protein was pooled then frozen at −80° C. The concentration of the protein was 1.3 mg/ml. Sometimes the protein was cleaved with PreScission protease overnight, a second Ni column performed in flow through mode to removed uncleaved protein. GST beads were then added to remove the PreScission Protease. The protein was then gel filtered as descripted above.
Assay Method for Measurement of In Vitro Inhibition of Cryptosporidium lysyl tRNA Synthetase (KRS)
Potency of compounds was determined in 10 points dose-response inhibition curves. Compounds were transferred into 384-well clear bottom plates (Greiner Bio-One, 781101) using an Echo 550 acoustic dispenser (Labcyte). Using an automatic liquid dispenser, 50 μL reaction mixes were prepared by adding 25 μL of substrate mix into all wells followed by the addition of 25 μL enzyme mix into compounds and no inhibition control wells (final reaction: 100 mM HEPES, pH 7.4, 20 mM MgCl2, 1 mM DTT, 500 μM ATP, 1.2 mM L-Lysine, 300 nM CpKRS and 0.5 U/mL Pyrophosphatase). Complete inhibition control reactions were performed in the absence of enzyme and the plates were incubated at room temperature for 8 h. Reactions were stopped by the addition of Biomol green (50 μL: Enzo Life Sciences) with the amount of free phosphate detected by measuring absorbance (650 nm) after 20 min further incubation (BMG Pherastar plate reader). Counter screen assays to eliminate direct inhibition of pyrophosphatase were performed using 0.5 U/mL pyrophosphatase and 3 μM pyrophosphate as substrate in the same assay buffer (100 mM HEPES, pH 7.4, 20 mM MgCl2, 1 mM DTT) for 8 hours at room temperature. Biomol green was added and incubated for 20 min before detection as above. Samples were run in duplicate and data was processed and analysed using ActivityBase (IDBS).

[3] = test system: Hep G2 (Human hepatocyte carcinoma); assay: In vitro inhibition of HepG2 cells (cytotoxicity); type: cell-based; conditions: read-out: Hs HepG2 PEC50 (converted)
From the text: Assay Method for Measurement of In Vitro Inhibition of HepG2 Cells (Cytotoxicity)
These experiments were run in accordance with the method of Mersch-Sundermann V et. al. Toxicology 2004, 198:329-340

Cryptosporidium = conditions: Cryptosporidium-HIV co-infected patients not co-treated with HIV antiretroviral therapy; cited from earlier work

Chain of Cryptosporidium parvum lysyl t-RNA synthetase (Cp KRS) (Q5CR27 entry or part of it): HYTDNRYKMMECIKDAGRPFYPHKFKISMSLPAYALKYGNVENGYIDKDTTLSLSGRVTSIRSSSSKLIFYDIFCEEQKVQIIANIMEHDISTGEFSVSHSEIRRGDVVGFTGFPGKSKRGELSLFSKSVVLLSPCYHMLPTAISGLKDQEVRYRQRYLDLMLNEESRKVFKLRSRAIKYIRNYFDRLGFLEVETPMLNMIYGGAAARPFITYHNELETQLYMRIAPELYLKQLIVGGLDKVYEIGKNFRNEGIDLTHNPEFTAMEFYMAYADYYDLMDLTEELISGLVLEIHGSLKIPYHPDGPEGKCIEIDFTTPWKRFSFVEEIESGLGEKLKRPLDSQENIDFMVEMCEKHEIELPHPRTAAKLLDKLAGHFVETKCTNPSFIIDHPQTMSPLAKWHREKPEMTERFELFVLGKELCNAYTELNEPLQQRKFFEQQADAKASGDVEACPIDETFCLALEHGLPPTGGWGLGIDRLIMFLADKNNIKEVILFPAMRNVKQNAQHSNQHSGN
T1 sequence (Q15046 whole entry): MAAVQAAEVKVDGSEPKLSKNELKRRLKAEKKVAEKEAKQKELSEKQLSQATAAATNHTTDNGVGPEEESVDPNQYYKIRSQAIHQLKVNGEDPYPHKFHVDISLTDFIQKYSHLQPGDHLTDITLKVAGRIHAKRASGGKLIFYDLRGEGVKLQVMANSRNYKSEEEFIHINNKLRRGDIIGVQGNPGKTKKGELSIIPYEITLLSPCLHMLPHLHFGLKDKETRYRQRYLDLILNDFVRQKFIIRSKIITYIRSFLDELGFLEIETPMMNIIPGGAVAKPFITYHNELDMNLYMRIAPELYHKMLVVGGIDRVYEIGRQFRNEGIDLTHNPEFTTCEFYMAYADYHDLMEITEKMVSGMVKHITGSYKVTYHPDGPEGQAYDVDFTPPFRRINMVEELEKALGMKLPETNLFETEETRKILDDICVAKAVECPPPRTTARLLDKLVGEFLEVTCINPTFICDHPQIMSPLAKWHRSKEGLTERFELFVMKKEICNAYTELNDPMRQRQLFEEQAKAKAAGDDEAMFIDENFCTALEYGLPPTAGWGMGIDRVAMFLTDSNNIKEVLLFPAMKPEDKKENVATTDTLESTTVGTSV
Chain of PfLysRS (Q8IDJ8 1-583): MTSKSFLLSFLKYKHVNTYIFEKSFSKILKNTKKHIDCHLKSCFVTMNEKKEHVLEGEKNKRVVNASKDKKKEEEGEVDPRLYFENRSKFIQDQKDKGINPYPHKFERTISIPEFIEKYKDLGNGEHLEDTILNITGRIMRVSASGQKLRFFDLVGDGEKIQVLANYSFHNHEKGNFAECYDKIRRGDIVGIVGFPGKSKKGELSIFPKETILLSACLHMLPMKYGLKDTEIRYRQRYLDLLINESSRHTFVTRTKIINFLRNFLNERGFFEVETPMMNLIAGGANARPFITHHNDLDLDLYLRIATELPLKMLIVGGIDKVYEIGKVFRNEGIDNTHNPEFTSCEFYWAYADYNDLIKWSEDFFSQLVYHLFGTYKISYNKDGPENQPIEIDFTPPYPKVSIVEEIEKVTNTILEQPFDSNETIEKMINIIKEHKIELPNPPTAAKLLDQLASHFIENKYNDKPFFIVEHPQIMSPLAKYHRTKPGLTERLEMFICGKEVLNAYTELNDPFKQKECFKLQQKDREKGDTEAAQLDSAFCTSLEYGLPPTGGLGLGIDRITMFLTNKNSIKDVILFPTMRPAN

| SMILES | selectivity for PfLysRS vs HsLysRS (PfLysRS) | IC50 [1] [µM] | EC50 (Cryptosporidium parvum) [µM] | IC50 [2] [µM] | EC50 [3] [µM] | efficacy in clinical trials (Cryptosporidium) |
| --- | --- | --- | --- | --- | --- | --- |
| C[C@H]1CCC[C@H](C[C@H]2Cc3cc(O)cc(O)c3C(=O)O2)O1 [Cladosporin, cladosporin] | more than 100 fold | – | – | – | – | – |
| Nc1nc2c(c(C(F)(F)F)n1)C(=O)N(C[C@@H]1CCC[C@@H](C(F)(F)F)C1)C2 [Compound 5, 2-amino-4-(trifluoromethyl)-6-(((1R,3R)-3-(trifluoromethyl)cyclohexyl)methyl)-6,7-dihydro-5H-pyrrolo[3,4-d]pyrimidin-5-one] | – | 20 | 0.0501 | 1.58 | 15.8 | – |
| Nc1nc2c(c(C(F)(F)F)n1)C(=O)N(C[C@H]1CCC[C@@H](C(F)(F)F)C1)C2 [Compound 6, 2-amino-4-(trifluoromethyl)-6-(((1S,3R)-3-(trifluoromethyl)cyclohexyl)methyl)-6,7-dihydro-5H-pyrrolo[3,4-d]pyrimidin-5-one] | – | > 100 | – | > 50.1 | > 100 | – |
| Nc1nc2c(c(C(F)(F)F)n1)C(=O)N(C[C@H]1CCC[C@H](C(F)(F)F)C1)C2 [Compound 7, 2-amino-4-(trifluoromethyl)-6-(((1S,3S)-3-(trifluoromethyl)cyclohexyl)methyl)-6,7-dihydro-5H-pyrrolo[3,4-d]pyrimidin-5-one] | – | 63.1 | – | 15.8 | 79.4 | – |
| CC(=O)Oc1ccccc1C(=O)Nc1ncc([N+](=O)[O-])s1 [Nitazoxanide] | – | – | – | – | – | ineffective |
